Assay results published in patent publication US20090163586A1, “Bis-(Sulfonylamino) Derivatives in Therapy 205” (AstraZeneca AB, priority 2007, published 2009).

These compounds were tested against T1, human mPGES-1 (Homo sapiens, UniProt O14684) (assay: Microsomal prostaglandin E synthase biochemical assay). Details: microsome preparation containing human mPGES-1; PGH2 10.8 μM, GSH 2.5 mM, pH 6.8; PGE2 by HTRF; average of at least n=2.
T1 sequence (O14684 1-152): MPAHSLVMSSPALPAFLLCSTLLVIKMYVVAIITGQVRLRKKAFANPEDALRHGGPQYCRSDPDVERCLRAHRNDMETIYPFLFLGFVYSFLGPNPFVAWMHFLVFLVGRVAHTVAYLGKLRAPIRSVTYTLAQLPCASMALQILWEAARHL
Procedure, shortened: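 Human mPGES-1 microsomes at 2 μg/mL were pre-incubated 15 min with compound (60 μM to 0.002 μM) in 50 mM potassium phosphate pH 6.8 with 2.5 mM GSH. The reaction was started with 10.8 μM PGH2 and stopped after 1 minute with acidic ferric chloride/citrate. PGE2 was quantified by HTRF; IC50 is the mean of at least 2 runs.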

IC50 [µM]	SMILES
6.2	NS(=O)(=O)c1cc2c(cc1NS(=O)(=O)CCc1ccc(-c3ccco3)cc1)CCC2 [Example 235, 6-(2-(4-(Furan-2-yl)phenyl)ethylsulfonamido)-2,3-dihydro-1H-indene-5-sulfonamid]
4.6	NS(=O)(=O)c1c(NS(=O)(=O)CCc2ccc(Cl)c(Cl)c2)ccc2c1CCC2 [Example 236, 5-(2-(3,4-Dichlorophenyl)ethylsulfonamido)-2,3-dihydro-1H-indene-4-sulfonamide]
6.06	CNS(=O)(=O)c1ccccc1NS(=O)(=O)c1cccc(-c2ccc(Cl)c(Cl)c2)c1 [Example 239, 2-[[3-(3,4-Dichlorophenyl)phenyl]sulfonylamino]-N-methyl-benzenesulfonamide]
0.031	NS(=O)(=O)c1ccccc1NS(=O)(=O)CCc1ccc(C#Cc2ccc(C(F)(F)F)cc2)nc1 [Example 240, 2-(2-(6-((4-(Trifluoromethyl)phenyl)ethynyl)pyridin-3-yl)ethylsulfonamido)benzenesulfonamide]
